The experiment has as its system human FXN. Description: FXN mRNA expression by qRT-PCR in GM15850 cells after 48 hr compound treatment. In kind it is cell-based. The conditions noted are these: Homo sapiens; GM15850 cells, 48 hr incubation, hFXN normalized to hGAPDH; read-out: EC50 WT (nM, 48 hr). The method, then:
Cell culture: Cells were cultured in RPMI1640 medium+15% FBS. Cells were maintained at a density between 2e5/mL and 1e6/mL. Cells were centrifuged, resuspended in fresh medium, counted and plated at 150,000 cells per well in 100 uL in a non-coated, flat bottom tissue culture plate.
Compound treatment: 10 mM stock solution of FA GeneTAC was diluted 1:10 in DMSO followed by a 1:100 dilution in growth medium. […] Compound was then diluted at a 1:3 ratio into growth medium containing 0.01% DMSO. 5-point, 3-fold dose response curve was generated. 11 μL of 10× compound was added to wells containing 100 μL cell suspension of GM15850. 11 μL growth medium containing 0.01% DMSO was added to all wells not treated with FA GeneTAC. Cells were allowed to incubate for 48 hrs prior to cell lysis using guanidine isothiocyanate solution.
RNA isolation: Total RNA was isolated and purified in 384-well column filter plates using chaotropic salt.
qRT-PCR: qRT-PCR reactions were assembled using AgPath-ID reagents (Thermo Fisher) using 6 uL mastermix and 4 μL RNA. qRT-PCR TaqMan primer probe sets against human FXN (Assay ID Hs01075496_m1) and human GAPDH (Assay ID Hs00266705_g1) were used to measure the intended targets. qRT-PCR was run on the ThermoFisher QuantStudio 6 PRO instrument using the manufacturer's recommended cycling conditions.
Data analysis: qPCR data was analyzed using Thermo Fisher Design and Analysis software. Data was exported to Excel and hFXN expression was normalized to hGAPDH expression.
Background: Quantitative PCR measures a nucleic acid by following its amplification.

A word on the EC50: it is the midpoint of the concentration-response curve. As for `COC[C@@H](C)n1c(C2CCN(C(=O)COCCOCCOCCOCCOCCOCCOCCNC(=O)CCNC(=O)c3nc(NC(=O)CCNC(=O)c4cc(NC(=O)c5nc(NC(=O)CCNC(=O)c6cc(NC(=O)c7nccn7C)cn6C)cn5C)cn4C)cn3C)CC2)nc2cnc3cc(-c4c(C)noc4C)c(OC)cc3c21` [Compound 43, N-[5-[(2-[[2-([2-[(23-[4-[7-(3,5-dimethyl-1,2-oxazol-4-yl)-8-methoxy-1-[(2R)-1-methoxypropan-2-yl]imidazo[4,5-c]quinolin-2-yl]piperidin-1-yl]-23-oxo-3,6,9,12,15,18,21-heptaoxatricosan-1-yl)carbamoyl]ethyl]carbamoyl)-1-methylimidazol-4-yl]carbamoyl]ethyl)carbamoyl]-1-methylpyrrol-3-yl]-1-methyl-4-(3-[[1-methyl-4-(1-methylimidazole-2-amido)pyrrol-2-yl]formamido]propanamido) imidazole-2-carboxamide], the EC50 was above 500 nM.

For `COc1ccc2c(c1)C(c1ccc(Cl)cc1)=N[C@@H](CC(=O)Nc1ccc(OCCOCCOCCOCCOCCOCCOCCOCCOCCNC(=O)CCNC(=O)c3nc(NC(=O)CCNC(=O)c4cc(NC(=O)c5nc(NC(=O)CCNC(=O)c6cc(NC(=O)c7nccn7C)cn6C)cn5C)cn4C)cn3C)cc1)c1nnc(C)n1-2` [Compound 25], the concentration giving a half-maximal response (EC50) lay within 100 to 500 nM.

For the compound `COc1ccc2c(c1)C(c1ccc(Cl)cc1)=N[C@H](CC(=O)Nc1ccc(OCCOCCOCCOCCOCCOCCOCCOCCOCCNC(=O)CCNC(=O)c3nc(NC(=O)CCNC(=O)c4cc(NC(=O)c5nc(NC(=O)CCNC(=O)c6cc(NC(=O)c7nccn7C)cn6C)cn5C)cn4C)cn3C)cc1)c1nnc(C)n1-2` [Compound 26], the EC50 was in the range of 100 to 500 nM.

`Cc1sc2c(c1C)C(c1ccc(Cl)cc1)=N[C@@H](CC(=O)Nc1ccc(OCCOCCOCCOCCOCCOCCOCCOCCOCCNC(=O)CCNC(=O)c3nc(NC(=O)CCNC(=O)c4cc(NC(=O)c5nc(NC(=O)CCNC(=O)c6cc(NC(=O)c7nccn7C)cn6C)cn5C)cn4C)cn3C)nc1)c1nnc(C)n1-2` [Compound 102]: the EC50 was below 100 nM.

In the case of `COC[C@@H](C)n1c(C2CCN(C(=O)COCCOCCOCCOCCOCCOCCOCCOCCNC(=O)CCNC(=O)c3nc(NC(=O)CCNC(=O)c4cc(NC(=O)c5nc(NC(=O)CCNC(=O)c6cc(NC(=O)c7nccn7C)cn6C)cn5C)cn4C)cn3C)CC2)nc2cnc3cc(-c4c(C)noc4C)c(OC)cc3c21` [Compound 44], the EC50 is 100 to 500 nM.

In the case of `Cc1sc2c(c1C)C(c1ccc(Cl)cc1)=N[C@@H](CC(=O)Nc1ccc(OCCOCCOCCOCCN3CCN(CCOCCOCCOCCNC(=O)CCNC(=O)c4nc(NC(=O)CCNC(=O)c5cc(NC(=O)c6nc(NC(=O)CCNC(=O)c7cc(NC(=O)c8nccn8C)cn7C)cn6C)cn5C)cn4C)CC3)cc1)c1nnc(C)n1-2` [Compound 40], the EC50 is below 100 nM.

Take `Cc1sc2c(c1C)C(c1ccc(Cl)cc1)=N[C@@H](CC(=O)Nc1ccc(OCCOCCOCCOCCOCCOCCNC(=O)CCNC(=O)c3nc(NC(=O)CCNC(=O)c4cc(NC(=O)c5nc(NC(=O)CCNC(=O)c6cc(NC(=O)c7nccn7C)cn6C)cn5C)cn4C)cn3C)cc1)c1nnc(C)n1-2` [Compound 21]: the EC50 was in the range of 100 to 500 nM.

With `CC(=O)N1c2ccc(-c3ccc(C(=O)NCCOCCOCCOCCOCCOCCOCCOCCOCCNC(=O)CCNC(=O)c4nc(NC(=O)CCNC(=O)c5cc(NC(=O)c6nc(NC(=O)CCNC(=O)c7cc(NC(=O)c8nccn8C)cn7C)cn6C)cn5C)cn4C)cc3)cc2[C@H](Nc2ccc(Cl)cc2)C[C@@H]1C` [Compound 36], the EC50 is below 100 nM.

For the compound `Cc1noc(C)c1-c1cnc2c(-c3ccc(C(=O)NCCOCCOCCOCCOCCOCCOCCOCCNC(=O)CCNC(=O)c4nc(NC(=O)CCNC(=O)c5cc(NC(=O)c6nc(NC(=O)CCNC(=O)c7cc(NC(=O)c8nccn8C)cn7C)cn6C)cn5C)cn4C)cc3)cn([C@@H](C)c3ccccn3)c2c1` [Compound 41], the EC50 lay within 100 to 500 nM.

Regarding `Cc1sc2c(c1C)C(c1ccc(Cl)cc1)=N[C@@H](CC(=O)Nc1ccc(CCCOCCOCCOCCOCCOCCOCCOCCOCCNC(=O)CCNC(=O)c3nc(NC(=O)CCNC(=O)c4cc(NC(=O)c5nc(NC(=O)CCNC(=O)c6cc(NC(=O)c7nccn7C)cn6C)cn5C)cn4C)cn3C)cc1)c1nnc(C)n1-2` [Compound 63], the EC50 is below 100 nM.

These data come from patent publication US20240050576A1, “METHODS AND COMPOUNDS FOR THE TREATMENT OF GENETIC DISEASE” (Design Therapeutics, Inc., priority 2020, published 2024).
